According to a melting point compilation (Tetko et al.; mined from patent text by program, amines drawn as free bases though some values may be those of a salt):

First: O=C1[C@H]2CCC[C@H]2Nc2ccc(Cl)cc2N1Cc1ccccc1 (relative stereo)
Second: O=C1c2ccccc2C(=O)N1CC(=O)N1c2ccccc2N(Cc2ccccn2)C(=O)[C@H]2CCC[C@H]21 (relative stereo)
The melting point of the first is lower: 160 to 163 °C for the first, 227 to 229 °C for the second.

First: N#CC=Cc1ccc(Cl)cc1C(=O)c1ccccc1F
Second: O=C1Nc2ccccc2S(=O)(=O)c2ccccc21
The melting point of the first is lower: 130 to 133 °C for the first, 284 to 286 °C for the second.

Going from CCCCCC(=O)Nc1ccc(C(=O)NN=C2C(=O)Nc3ccc(I)cc32)cc1 to Cc1c(CCCCCCCC(=O)O)cccc1C(=O)c1ccc(Cl)cc1, the melting point falls from 305 °C to 70 °C.

Compared with Cc1oc(-c2ccccc2)nc1COc1ccc(OCc2nc(-c3ccccc3)oc2CO)cc1, CN(C)c1ccc(-c2nnc(-c3ccccc3)o2)cc1 is lower in melting point: 157 to 158 °C for the first, 135 to 140 °C for the second.

First: COC(=O)CNC(=O)CC(O)CBr (stereo not given)
Second: CC(C)COC(=O)N[C@H](CC(=O)O)Cc1ccccc1
The melting point of the first is lower: 60 to 61 °C for the first, 95 to 97 °C for the second.

Compared with CC1=NN(c2cc(-c3ccnc(Nc4cccc(Cl)c4)n3)ccn2)C(=O)CC1, Cn1c(-c2cccc(Cl)c2)cc(-c2cccc(Cl)c2)nc1=O is lower in melting point: 189 to 192 °C for the first, 178 to 181 °C for the second.

First: N#CC(C#N)=C(NCCCN1CCCCC1)NCCCN1CCCCC1
Second: COc1c(C2CCN(CCCCNC(=O)c3sc(-c4ccc(C#N)cc4)nc3C)CC2)ccc2c1CCCC2
The melting point of the first is lower: 110 to 112 °C for the first, 160 to 164 °C for the second.

First: O=C(NC1CCCCC1)NS(=O)(=O)c1ccc2c(c1)CCN(C(=O)N1CCOCC1)CC2
Second: O=C1Cc2cc(NC(=O)C(=O)N3CCC(COc4ccccc4)CC3)ccc2N1
The melting point of the first is lower: 190 to 191 °C for the first, 200 to 202 °C for the second.

First: COc1ccc(N2C=Cc3cc(S(N)(=O)=O)sc3S2(=O)=O)cc1
Second: COc1ccc(-c2nsc(SN)n2)cc1
The melting point of the first is lower: 90 to 92 °C for the first, 136 to 139 °C for the second.

Compared with COc1ccc(C(=O)COc2ccc(C(=O)OCc3ccccc3)c(O)c2)cc1C12CC3CC(CC(C3)C1)C2, COc1cc(C#N)c(N=C(C)N2CCc3cc(OC)c(OCc4ccccc4)cc3C2)cc1OC is lower in melting point: 129 °C for the first, 72 to 73 °C for the second.

First: CCc1sc2ccc(C)cc2c1S(=O)(=O)Nc1onc(C)c1Br
Second: CCOC(=O)C1=C(C)NN=C(CC)C1c1cccc(Cl)c1 (stereo not given)
The melting point of the first is higher: 176 to 178 °C for the first, 112 °C for the second.

Compared with CC(C)(C)OC(=O)NCCOCCOCCNC(=O)CCCCC1SCC2NC(=O)NC21 (stereo not given), CCOC(=O)c1cccc([N+](=O)[O-])c1NC(=O)OC(C)(C)C is lower in melting point: 106 to 108 °C for the first, 104 to 105 °C for the second.

First: Cn1ncc2c1-c1c(Oc3cccnc3OCCN3CCCC3=O)sc(C(=O)O)c1CC2
Second: COC(CNC(=O)c1ccc(C(=O)N2CCN(c3ncccc3NC(C)C)CC2)nc1)OC
The melting point of the first is higher: 202 to 204 °C for the first, 167 to 169 °C for the second.

First: CN(C(=O)c1cccc(F)c1[Si](C)(C)C)C(C)(C)C
Second: CCC1(C)CC(S(=O)(=O)Cc2c(F)cccc2F)=NO1 (stereo not given)
The melting point of the first is lower: 32 to 35 °C for the first, 64 to 65 °C for the second.

Compared with Cc1[nH]c(C(=O)NCCN2CCCCC2)c(C)c1-c1nc2ccc(C(=O)c3ccccc3)cc2[nH]1, CCCN(CCN1CCN(C(=O)c2cc3ccccc3[nH]2)CC1)C1CCc2c(O)cccc2C1 (stereo not given) is lower in melting point: 230 to 237 °C for the first, 169 to 170 °C for the second.

First: NS(=O)(=O)c1cscn1
Second: CS(=O)(=O)c1ccc(OCc2ccccc2)c(C=O)c1
The melting point of the first is higher: 142 to 146 °C for the first, 129 °C for the second.

Compared with COc1ccc(/C=C/c2nc3c([nH]2)c(=O)n(C)c(=O)n3C)c(OC)c1, COc1cc(C(=O)N2CCN(c3cccc(C)c3Cl)CC2)cc(OC)c1OC is lower in melting point: > 280 °C for the first, 156 to 159 °C for the second.

First: O=C1NCCc2c(-c3ccccc3CCCO)[nH]c3cccc1c23
Second: CC(C)n1nc(-c2c(NCCO)nc(N)nc2-c2ccccc2)ccc1=O
The melting point of the first is higher: 234 °C for the first, 222 to 224 °C for the second.

Compared with COC(=O)c1ccccc1OCCCOc1cc2c(cc1O)CCO2, COC(=O)NN(C(=O)Cl)c1ccccc1OCCSC is lower in melting point: 96 to 97 °C for the first, 55 to 57 °C for the second.

Compared with O=C(O)CC(C(=O)O)c1ccn2c(=O)c(C(=O)O)ccc2c1 (stereo not given), O=C(O)c1ccccc1CF is lower in melting point: 250 °C for the first, 178 to 181 °C for the second.

First: O=C(O)CC1(c2ccc(Cl)c(Cl)c2)CNC(=O)C1 (stereo not given)
Second: CN1C2C=C(c3ccc(Cl)c(Cl)c3)CC1CC2 (stereo not given)
The melting point of the first is higher: 191 to 195 °C for the first, 44 to 52 °C for the second.

First: COc1ncccc1OCC(O)CNC(C)C (stereo not given)
Second: COc1nc2ccccc2nc1NC(=O)N1CCN(c2ccccc2C(C)C)CC1
The melting point of the first is lower: 50 to 65 °C for the first, 147 to 149 °C for the second.

First: COc1cc(C#N)ccc1Cc1cn(C)c2ccc([N+](=O)[O-])cc12
Second: CON(c1ccc([N+](=O)[O-])cc1[N+](=O)[O-])S(=O)(=O)c1cccc(C)c1
The melting point of the first is higher: 200 to 201 °C for the first, 148 to 150 °C for the second.

Compared with COC(=O)c1cccc2nc(SCCCN3CCN(CC(=O)Nc4c(C(C)C)cccc4C(C)C)CC3)oc12, O=C(Nc1ccc(Oc2ccc(C(O)CCC(=O)N3CCOCC3)cc2)c(F)c1)c1ccc(Cl)c(Cl)c1 (stereo not given) is lower in melting point: 135 to 136 °C for the first, 108 to 111 °C for the second.

First: NS(=O)(=O)c1ccc(-c2c(-c3ccccc3)noc2COCC(F)(F)C(F)(F)C(F)(F)CO[N+](=O)[O-])cc1
Second: CS(=O)(=O)c1ccc(-c2ccccc2-c2ccc(Cl)cc2)cc1
The melting point of the first is lower: 38 to 39 °C for the first, 180 to 181 °C for the second.

First: CC1CC(=O)NN=C1c1ccc(NC(=NC#N)NCCc2ccccc2)cc1 (stereo not given)
Second: CC(=O)Nc1ccc(OCCCBr)cc1
The melting point of the first is higher: 209 to 210 °C for the first, 120 °C for the second.

First: O=C1Nc2ccc(-c3cccc([N+](=O)[O-])c3)cc2C2(CCCCC2)O1
Second: CC(/C=C/c1ccsc1-c1ccc2c(c1)C(C)(C)CCC2(C)C)=C\C(=O)O
The melting point of the first is higher: 245 to 246 °C for the first, 195 to 197 °C for the second.

Compared with CCOC(=O)C1(c2ccc(Cl)cc2)CCN(C(=O)CC(c2ccccc2)(c2ccccc2)c2ccccc2)CC1, O=C(O)c1ccc(OCCc2c(CCNS(=O)(=O)Cc3ccc(Cl)c(Cl)c3)n(C(c3ccccc3)c3ccccc3)c3ccc(Cl)cc23)cc1F is higher in melting point: 95 to 98 °C for the first, 117 to 119 °C for the second.

Compared with CCOC(=O)C1CCNC(=O)C1=O (stereo not given), CCN(CC)c1ccc2c(c1)C[C@@H]1c3ccccc3N[C@H]21 (relative stereo) is lower in melting point: 148 to 151 °C for the first, 116 to 118 °C for the second.

Compared with COc1ccc(Cn2ncc3nc(Cl)nc(Cl)c32)cc1, Nc1ccc(CCOCCCCCCNCC(O)c2cc(Cl)c(N)c(Cl)c2)cc1 (stereo not given) is lower in melting point: 100 to 101 °C for the first, 71 to 73 °C for the second.

First: Cn1c2cc[nH]c(=O)c2c2cccc(F)c21
Second: O=c1[nH]ncc2c(O)cccc12
The melting point of the first is lower: 294 to 296 °C for the first, 351 to 355 °C for the second.

First: Cc1ccsc1-c1nc(CCl)co1
Second: N=C(N)NCCCc1cc[nH]n1
The melting point of the first is lower: 95 to 96 °C for the first, 210 °C for the second.

First: COc1ccc(C)cc1NC(=O)Nc1ccc2c(c1)CCN(C(=O)Oc1ccc(CCO)cc1Cl)C2
Second: CCCc1c(OCCCCc2ccc3cc(O)c(O)cc3c2)ccc(C(=O)O)c1O
The melting point of the first is lower: 95 to 98 °C for the first, 173 to 175 °C for the second.

First: Fc1cc(CNC(=S)NCC(F)(F)F)ccc1OCC(F)(F)F
Second: CS(=O)(=O)c1cc(F)cc(Cc2cc3cccc(-c4cccc(C(=O)NCC(N)=O)c4)c3s2)c1
The melting point of the first is lower: 88 to 90 °C for the first, 160 to 161 °C for the second.

First: CC(C)c1ccc(-c2nc(Cl)c(C=O)n2Cc2ccc(-c3ccccc3S(=O)(=O)N=CN(C)C)cc2)cc1
Second: O=C(Nc1ccc(-n2nc(C3CC3)cc2C2CC2)c(F)c1)c1c(Cl)cncc1Cl
The melting point of the first is lower: 177 °C for the first, 280 to 281 °C for the second.
